Where only a bound is given, the exact number is not on record here.

In this assay the target is T1, hDGAT1 (Homo sapiens, UniProt O75907).
T1 construct: made in house; host or cells: Sf9 insect cells (baculovirus); microsomal fraction
T1 sequence (O75907 1-488): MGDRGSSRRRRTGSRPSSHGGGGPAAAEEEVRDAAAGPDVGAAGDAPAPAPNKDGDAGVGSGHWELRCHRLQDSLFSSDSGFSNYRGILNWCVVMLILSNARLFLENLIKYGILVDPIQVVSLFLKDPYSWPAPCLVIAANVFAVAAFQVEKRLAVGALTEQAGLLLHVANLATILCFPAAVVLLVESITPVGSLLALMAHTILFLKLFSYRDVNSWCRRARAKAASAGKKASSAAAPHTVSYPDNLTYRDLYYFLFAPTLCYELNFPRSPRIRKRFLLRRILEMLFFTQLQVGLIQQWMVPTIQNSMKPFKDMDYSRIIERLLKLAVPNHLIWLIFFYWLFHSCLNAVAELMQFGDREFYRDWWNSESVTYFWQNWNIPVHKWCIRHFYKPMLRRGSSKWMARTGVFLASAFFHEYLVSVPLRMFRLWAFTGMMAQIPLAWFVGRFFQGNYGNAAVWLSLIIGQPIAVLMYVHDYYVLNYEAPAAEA
Put plainly: In-vitro DGAT1 assay with hDGAT1 microsomes from Sf9 cells (14C oleoyl CoA, scintillation counting). It counts as biochemical. As to conditions: for Percentage inhibition of hDGAT1: at 1 μM; for inhibition at 1 µM: read-out: Percentage inhibition of hDGAT1. In a few lines: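 Radiolabelled triglyceride formation was measured: heptane extracts were scintillation-counted after a 10-min, 37 °C reaction stopped with alkaline ethanol. Enzyme was human DGAT1 in baculovirus-infected Sf9 microsomal membranes; substrates were 14C oleoyl-CoA plus dioleoylglycerol. Runs were duplicated, and inhibition (%) was related to nM compound concentration.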

On to `O=C(O)CC1CCC(c2ncc(-c3ccc(NC(=O)c4nc(-c5ccccc5)oc4C(F)(F)F)cc3)s2)CC1` (stereo not drawn) [Example 370, 2-(4-(5-(4-(2-Phenyl-5-(trifluoromethyl)oxazole-4-carboxamido)phenyl)thiazol-2-VI)cyclohexyl)acetic acid], for which the “Percentage inhibition of hDGAT1” value is recorded as “++ (>50 % Inhibition)”. One may read the inhibition as the relative decrease from the control value, in per cent. Take `Cc1oc(-c2ccccc2)nc1C(=O)Nc1ccc(-c2cnc(C3CCC(CC(=O)O)CC3)s2)cc1` (stereo not drawn) [Example 372, 2-(4-(5-(4-(5-Methyl-2-phenyloxazole-4-carboxamido)phenyl)thiazol-2-yl)cyclohexyl)acetic acid]: the inhibition at 1 µM is more than 50%. On the same count and under the same terms, with `O=C(O)CC1CCC(c2ncc(-c3ccc(NC(=S)Nc4ccccc4F)cc3)s2)CC1` (stereo not drawn) [Example 374, 2-(4-(5-(4-(3-(2-Fluorophenyl)thioureido)phenyl)thiazol-2-yl)cyclohexyl)acetic acid] the figure was more than 50%. For `Cc1nnc(CC2CCC(c3ncc(-c4ccc(NC(=O)Nc5ccc(F)cc5F)cc4)s3)CC2)o1` (stereo not drawn) [Example 379, 1-(2,4-Difluorophenyl)-3-(4-(2-(4-((5-methyl-1,3,4-oxadiazol-2-yl)methyl)cyclohexyl)thiazol-5-yl)phenyl)urea], the inhibition at 1 µM was more than 50%. Same read-out and setting: with `Cc1nnc(CC2CCC(c3ncc(-c4ccc(NC(=O)Nc5ccccc5Cl)cc4)s3)CC2)o1` (stereo not drawn) [Example 380, 1-(2-Chlorophenyl)-3-(4-(2-(4-((5-methyl-1,3,4-oxadiazol-2-yl)methyl)cyclohexyl)thiazol-5-yl)phenyl)urea] the figure was 20 to 50%; with `Cc1nnc(CC2CCC(c3ncc(-c4ccc(NC(=O)Nc5cc(F)cc(F)c5)cc4)s3)CC2)o1` (stereo not drawn) [Example 381, 1-(3,5-Difluorophenyl)-3-(4-(2-(4-((5-methyl-1,3,4-oxadiazol-2-yl)methyl)cyclohexyl)thiazol-5-yl)phenyl)urea], more than 50%; with `Cc1nnc(CC2CCC(c3ncc(-c4ccc(NC(=O)Nc5cc(F)c(F)cc5F)cc4)s3)CC2)o1` (stereo not drawn) [Example 382, 1-(4-(2-(4-((5-Methyl-1,3,4-oxadiazol-2-yl)methyl)cyclohexyl)thiazol-5-yl)phenyl)-3-(2,4,5-trifluorophenyl)urea], more than 50%. The same measure, in the same setting: with `Cc1nnc(CC2CCC(c3ncc(-c4ccc(NC(=O)Nc5c(F)cc(F)cc5F)cc4)s3)CC2)o1` (stereo not drawn) [Example 383, 1-(4-(2-(4-((5-Methyl-1,3,4-oxadiazol-2-yl)methyl)cyclohexyl)thiazol-5-yl)phenyl)-3-(2,4,6-trifluorophenyl)urea] the figure was more than 50%; with `Cc1nnc(CC2CCC(c3ncc(-c4ccc(NC(=O)c5c(F)cccc5F)cc4)s3)CC2)o1` (stereo not drawn) [Example 385, 2,6-Difluoro-N-(4-(2-(4-((5-methyl-1,3,4-oxadiazol-2-yl)methyl)cyclohexyl)thiazol-5-yl)phenyl)benzamide], 20 to 50%. The same measure, in the same setting: with `Cc1noc(CC2CCC(c3ncc(-c4ccc(NC(=O)Nc5ccccc5Cl)cc4)s3)CC2)n1` (stereo not drawn) [Example 390, 1-(2-Chlorophenyl)-3-(4-(2-(4-((3-methyl-1,2,4-oxadiazol-5-yl)methyl)cyclohexyl)thiazol-5-yl)phenyl)urea] the figure was more than 50%; with `Cc1noc(CC2CCC(c3ncc(-c4ccc(NC(=O)Nc5ccccc5F)cc4)s3)CC2)n1` (stereo not drawn) [Example 391, 1-(2-Fluorophenyl)-3-(4-(2-(4-((3-methyl-1,2,4-oxadiazol-5-yl)methyl)cyclohexyl)thiazol-5-yl)phenyl)urea], more than 50%. Take `Cc1noc(CC2CCC(c3ncc(-c4ccc(NC(=O)Nc5cc(F)cc(F)c5)cc4)s3)CC2)n1` (stereo not drawn) [Example 392, 1-(3,5-Difluorophenyl)-3-(4-(2-(4-((3-methyl-1,2,4-oxadiazol-5-yl)methyl)cyclohexyl)thiazol-5-yl)phenyl)urea]: the inhibition at 1 µM was more than 50%. Same read-out and setting: with `Cc1noc(CC2CCC(c3ncc(-c4ccc(NC(=O)Nc5cc(F)c(F)cc5F)cc4)s3)CC2)n1` (stereo not drawn) [Example 393, 1-(4-(2-(4-((3-Methyl-1,2,4-oxadiazol-5-yl)methyl)cyclohexyl)thiazol-5-yl)phenyl)-3-(2,4,5-trifluorophenyl)urea] the figure was more than 50%. The same measure, in the same setting: with `Cc1noc(CC2CCC(c3ncc(-c4ccc(NC(=O)Nc5ccc(F)cc5F)cc4)s3)CC2)n1` (stereo not drawn) [Example 394, 1-(2,4-Difluorophenyl)-3-(4-(2-(4-((3-methyl-1,2,4-oxadiazol-5-yl)methyl)cyclohexyl)thiazol-5-yl)phenyl)urea] the figure was more than 50%; with `Cc1noc(CC2CCC(c3ncc(-c4ccc(NC(=O)c5c(F)cccc5F)cc4)s3)CC2)n1` (stereo not drawn) [Example 396, 2,6-Difluoro-N-(4-(2-(4-((3-methyl-1,2,4-oxadiazol-5-yl)methyl)cyclohexyl)thiazol-5-yl)phenyl)benzamide], 20 to 50%; with `CC(=O)NC(=O)CC1CCC(c2ncc(-c3ccc(NC(=O)Nc4ccccc4Cl)cc3)s2)CC1` (stereo not drawn) [Example 400, N-Acetyl-2-(4-(5-(4-(3-(2-chlorophenyl)ureido)phenyl)thiazol-2-yl)cyclohexyl)acetamide], more than 50%. In the case of `CC(=O)NC(=O)CC1CCC(c2ncc(-c3ccc(NC(=O)Nc4ccc(F)cc4F)cc3)s2)CC1` (stereo not drawn) [Example 401, N-Acetyl-2-(4-(5-(4-(3-(2,4-difluorophenyl)ureido)phenyl)thiazol-2-yl)cyclohexyl)acetamide], the inhibition at 1 µM is more than 50%. In the case of `CC(=O)NC(=O)CC1CCC(c2ncc(-c3ccc(NC(=O)Nc4cc(F)c(F)cc4F)cc3)s2)CC1` (stereo not drawn) [Example 402, N-Acetyl-2-(4-(5-(4-(3-(2,4,5-trifluorophenyl)ureido)phenyl)thiazol-2-yl)cyclohexyl)acetamide], the inhibition at 1 µM is more than 50%. Consider `CC(=O)NC(=O)CC1CCC(c2ncc(-c3ccc(NC(=O)c4c(F)cccc4F)cc3)s2)CC1` (stereo not drawn) [Example 403, N-(4-(2-(4-(2-Acetamido-2-oxoethyl)cyclohexyl)thiazol-5-yl)phenyl)-2,6-difluoro benzamide], for which the “Percentage inhibition of hDGAT1” value is given as “+ (20-50% Inhibition)”.

As to `CC(C)(O)C1CCC(c2ncc(-c3ccc(NC(=O)Nc4ccccc4Cl)cc3)s2)CC1` (stereo not drawn) [Example 404, 1-(2-Chlorophenyl)-3-(4-(2-(4-(2-hydroxypropan-2-yl)cyclohexyl)thiazol-5-yl)phenyl)urea], the inhibition at 1 µM is more than 50%. On the same count and under the same terms, with `CC(C)(O)C1CCC(c2ncc(-c3ccc(NC(=O)Nc4cc(F)cc(F)c4)cc3)s2)CC1` (stereo not drawn) [Example 405, 1-(3,5-Difluorophenyl)-3-(4-(2-(4-(2-hydroxypropan-2-yl)cyclohexyl)thiazol-5-yl)phenyl)urea] the figure was more than 50%; with `CC(C)(O)C1CCC(c2ncc(-c3ccc(NC(=O)Nc4ccc(F)cc4F)cc3)s2)CC1` (stereo not drawn) [Example 406, 1-(2,4-Difluorophenyl)-3-(4-(2-(4-(2-hydroxypropan-2-yl)cyclohexyl)thiazol-5-yl)phenyl)urea], more than 50%; with `CC(C)(O)CC1CCC(c2ncc(-c3ccc(NC(=O)Nc4ccc(F)cc4F)cc3)s2)CC1` (stereo not drawn) [Example 407, 1-(2,4-Difluorophenyl)-3-(4-(2-(4-(2-hydroxy-2-methylpropyl)cyclohexyl)thiazol-5-yl)phenyl)urea], more than 50%. Same read-out and setting: with `CC(C)(O)CC1CCC(c2ncc(-c3ccc(NC(=O)Nc4cc(F)cc(F)c4)cc3)s2)CC1` (stereo not drawn) [Example 408, 1-(3,5-Difluorophenyl)-3-(4-(2-(4-(2-hydroxy-2-methylpropyl)cyclohexyl)thiazol-5-yl)phenyl)urea] the figure was more than 50%. In the case of `CC(C)(O)CC1CCC(c2ncc(-c3ccc(NC(=O)Nc4cc(F)c(F)cc4F)cc3)s2)CC1` (stereo not drawn) [Example 409], the “Percentage inhibition of hDGAT1” value was “++ (>50 % Inhibition)”. Take `NNC(=O)CC1CCC(c2ncc(-c3ccc(NC(=O)Nc4cc(F)cc(F)c4)cc3)s2)CC1` (stereo not drawn) [Example 410, 1-(3,5-Difluorophenyl)-3-(4-(2-(4-(2-hydrazinyl-2-oxoethyl)cyclohexyl)thiazol-5-yl)phenyl)urea]: the inhibition at 1 µM was more than 50%. Same read-out and setting: with `Cc1nnc(CC2CCC(c3ncc(-c4ccc(N)cc4)s3)CC2)s1` (stereo not drawn) [Example 413, 4-(2-(4-((5-Methyl-1,3,4-thiadiazol-2-yl)methyl)cyclohexyl)thiazol-5-yl)aniline] the figure was more than 50%; with `Cc1nnc(CC2CCC(c3ncc(-c4ccc(NC(=O)Nc5cc(F)c(F)cc5F)cc4)s3)CC2)s1` (stereo not drawn) [Example 414, 1-(4-(2-(4-((5-Methyl-1,3,4-thiadiazol-2-yl)methyl)cyclohexyl)thiazol-5-yl)phenyl)-3-(2,4,5-trifluorophenyl)urea], more than 50%.

Regarding `O=C(O)CN1CCC(c2ncc(-c3ccc(NC(=O)Nc4ccccc4Cl)cc3)s2)CC1` [Example 429, 2-(4-(5-(4-(3-(2-Chlorophenyl)ureido)phenyl)thiazol-2-yl)piperidin-1-yl)acetic acid], the inhibition at 1 µM was more than 50%. Same read-out and setting: with `O=C(O)CN1CCC(c2ncc(-c3ccc(NC(=O)Nc4ccccc4F)cc3)s2)CC1` [Example 431, 2-(4-(5-(4-(3-(2-Fluorophenyl)ureido)phenyl)thiazol-2-yl)piperidin-1-yl)acetic acid] the figure was more than 50%.

Values taken from US20130158075A1, “HETEROCYCLIC COMPOUNDS AS DGAT1 INHIBITORS” (PIRAMAL ENTERPRISES LIMITED, priority 2010, published 2013).
